Laboratory results published in ChEMBL document CHEMBL1141380 (J Med Chem, 2007).
≈ marks a conversion by molar mass, not a printed value.

Columns and labels:
[1] = biological target: Vascular endothelial growth factor receptor 2 (Homo sapiens, UniProt P35968)
Description: Inhibition of KDR by HTRF assay

Angiopoietin-1 receptor [2] = biological target: T1, Angiopoietin-1 receptor (Homo sapiens, UniProt Q02763); assay: Inhibition of Tie2 by HTRF assay
[3] = Clearance in iv dosed rat; format: ADME, organism-based; details: in vivo
Angiopoietin-1 receptor [4] = biological target: T1, Angiopoietin-1 receptor; assay: Inhibition of angiopoietin-1-stimulated Tie2 phosphorylation in EA.hy926 cells; format: functional, cell-based
[5] = biological target: Vascular endothelial growth factor receptor 2 and tyrosine-protein kinase TIE-2 (KDR and TIE2) (Homo sapiens) (UniProt P35968+Q02763); assay: Selectivity for Tie2 over KDR; format: protein assay
[6] = Solubility in 0.01N HCl; format: physicochemical
Ephrin type-B receptor 4 = Ephrin type-B receptor 4 (Homo sapiens, UniProt P54760); assay: Inhibition of EPHB4
[7] = biological target: Tyrosine-protein kinase Lyn (Homo sapiens, UniProt P07948); assay: Inhibition of Lyn
[8] = biological target: Proto-oncogene tyrosine-protein kinase Src (Homo sapiens, UniProt P12931); assay: inhibition of Src
[9] = biological target: Mast/stem cell growth factor receptor Kit (Homo sapiens, UniProt P10721); assay: Inhibition of cKit
[10] = biological target: Mitogen-activated protein kinase 14 (Homo sapiens, UniProt Q16539); assay: Inhibition of p38alpha
[11] = Oral bioavailability in Sprague-Dawley rat at 10 mg/kg, po; format: ADME, organism-based; details: in vivo
[12] = Mean residence time in rat; format: ADME, organism-based; details: in vivo
[13] = biological target: Tyrosine-protein kinase SYK (Homo sapiens, UniProt P43405); assay: Inhibition of SYK
[14] = biological target: Platelet-derived growth factor receptor beta (Homo sapiens, UniProt P09619); assay: Inhibition of PDGFR
[15] = AUC (0-infinity) in Sprague-Dawley rat at 10 mg/kg, po; format: ADME, organism-based; design: time infinity, dose 10 mg/kg, route oral; details: plasma
[16] = Plasma concentration in CD1 NU/NU mouse at 100 mg/kg after 12 hrs; format: ADME, organism-based; design: dose 100 mg/kg
[17] = Dissociation constant, pKa of the compound; format: physicochemical
[18] = Cmax in Sprague-Dawley rat at 10 mg/kg, po; format: ADME, organism-based; design: dose 10 mg/kg, route oral; details: in vivo
[19] = Clearance in Sprague-Dawley rat at 1 mg/kg, iv; format: ADME, organism-based; design: dose 1 mg/kg, route intravenous; details: in vivo
[20] = biological target: High affinity nerve growth factor receptor (Homo sapiens, UniProt P04629); assay: Inhibition of TrkA
[21] = biological target: Tyrosine-protein kinase ABL1 (Homo sapiens, UniProt P00519); assay: Inhibition of Abl
[22] = Volume of distribution in Sprague-Dawley rat at 1 mg/kg, iv; format: ADME, organism-based; design: dose 1 mg/kg, route intravenous; details: in vivo, read-out: Vss
[23] = biological target: Angiopoietin-1 receptor (Mus musculus) (UniProt Q02858); assay: Inhibition of angiopoietin-1-induced Tie2 phosphorylation in CD1 NU/NU mouse at 100 mg/kg after 3 hrs; format: functional, organism-based; design: dose 100 mg/kg
[24] = Half life in Sprague-Dawley rat at 1 mg/kg, iv; format: ADME, organism-based; design: dose 1 mg/kg, route intravenous; details: in vivo
[25] = biological target: Tyrosine-protein kinase Lck (Homo sapiens, UniProt P06239); assay: Inhibition of Lck
[26] = biological target: Insulin-like growth factor 1 receptor (Homo sapiens, UniProt P08069); assay: Inhibition of IGFR1
[27] = biological target: Tyrosine-protein kinase Fgr (Homo sapiens, UniProt P09769); assay: Inhibition of Fgr
[28] = biological target: Mitogen-activated protein kinase 10 (Homo sapiens, UniProt P53779); assay: inhibition of JNK3
[29] = Plasma concentration in CD1 NU/NU mouse at 100 mg/kg after 8 hrs; format: ADME, organism-based; design: dose 100 mg/kg
[30] = Plasma protein binding in rat; format: ADME, cell-free; details: read-out: PPB (converted)
[31] = biological target: Angiopoietin-1 receptor (Mus musculus) (UniProt Q02858); assay: Inhibition of angiopoietin-1-induced Tie2 phosphorylation in CD1 NU/NU mouse at 100 mg/kg after 8 hrs; format: functional, organism-based; design: dose 100 mg/kg
[32] = biological target: RAC-alpha serine/threonine-protein kinase (Homo sapiens, UniProt P31749); assay: Inhibition of PKBalpha
[33] = biological target: Proto-oncogene tyrosine-protein kinase receptor Ret (Homo sapiens, UniProt P07949); assay: Inhibition of RET
[34] = biological target: Tyrosine-protein kinase CSK (Homo sapiens, UniProt P41240); assay: Inhibition of CSK
[35] = Plasma concentration in CD1 NU/NU mouse at 100 mg/kg after 3 hrs; format: ADME, organism-based; design: dose 100 mg/kg
[36] = Plasma protein binding in mouse; format: ADME, cell-free; details: read-out: PPB (converted)
[37] = Solubility in phosphate buffer at pH 7.0; format: physicochemical
[38] = biological target: Tyrosine-protein kinase ZAP-70 (Homo sapiens, UniProt P43403); assay: Inhibition of ZAP70
[39] = Solubility in simulated intestinal fluid at pH 6.8; format: physicochemical
[40] = Tmax in Sprague-Dawley rat at 10 mg/kg, po; format: ADME, organism-based; design: dose 10 mg/kg, route oral; details: in vivo
[41] = biological target: Tyrosine-protein kinase ITK/TSK (Homo sapiens, UniProt Q08881); assay: Inhibition of Itk
[42] = biological target: Cyclin-dependent kinase 5 (Homo sapiens, UniProt Q00535); assay: Inhibition of CDK5
[43] = biological target: Tyrosine-protein kinase JAK3 (Homo sapiens, UniProt P52333); assay: Inhibition of Jak3
Aurora kinase A = Aurora kinase A (Homo sapiens, UniProt O14965); assay: Inhibition of AurA
[44] = biological target: Macrophage colony-stimulating factor 1 receptor (Homo sapiens, UniProt P07333); assay: Inhibition of c-fms

Vascular endothelial growth factor receptor 2, sequence (P35968 whole entry): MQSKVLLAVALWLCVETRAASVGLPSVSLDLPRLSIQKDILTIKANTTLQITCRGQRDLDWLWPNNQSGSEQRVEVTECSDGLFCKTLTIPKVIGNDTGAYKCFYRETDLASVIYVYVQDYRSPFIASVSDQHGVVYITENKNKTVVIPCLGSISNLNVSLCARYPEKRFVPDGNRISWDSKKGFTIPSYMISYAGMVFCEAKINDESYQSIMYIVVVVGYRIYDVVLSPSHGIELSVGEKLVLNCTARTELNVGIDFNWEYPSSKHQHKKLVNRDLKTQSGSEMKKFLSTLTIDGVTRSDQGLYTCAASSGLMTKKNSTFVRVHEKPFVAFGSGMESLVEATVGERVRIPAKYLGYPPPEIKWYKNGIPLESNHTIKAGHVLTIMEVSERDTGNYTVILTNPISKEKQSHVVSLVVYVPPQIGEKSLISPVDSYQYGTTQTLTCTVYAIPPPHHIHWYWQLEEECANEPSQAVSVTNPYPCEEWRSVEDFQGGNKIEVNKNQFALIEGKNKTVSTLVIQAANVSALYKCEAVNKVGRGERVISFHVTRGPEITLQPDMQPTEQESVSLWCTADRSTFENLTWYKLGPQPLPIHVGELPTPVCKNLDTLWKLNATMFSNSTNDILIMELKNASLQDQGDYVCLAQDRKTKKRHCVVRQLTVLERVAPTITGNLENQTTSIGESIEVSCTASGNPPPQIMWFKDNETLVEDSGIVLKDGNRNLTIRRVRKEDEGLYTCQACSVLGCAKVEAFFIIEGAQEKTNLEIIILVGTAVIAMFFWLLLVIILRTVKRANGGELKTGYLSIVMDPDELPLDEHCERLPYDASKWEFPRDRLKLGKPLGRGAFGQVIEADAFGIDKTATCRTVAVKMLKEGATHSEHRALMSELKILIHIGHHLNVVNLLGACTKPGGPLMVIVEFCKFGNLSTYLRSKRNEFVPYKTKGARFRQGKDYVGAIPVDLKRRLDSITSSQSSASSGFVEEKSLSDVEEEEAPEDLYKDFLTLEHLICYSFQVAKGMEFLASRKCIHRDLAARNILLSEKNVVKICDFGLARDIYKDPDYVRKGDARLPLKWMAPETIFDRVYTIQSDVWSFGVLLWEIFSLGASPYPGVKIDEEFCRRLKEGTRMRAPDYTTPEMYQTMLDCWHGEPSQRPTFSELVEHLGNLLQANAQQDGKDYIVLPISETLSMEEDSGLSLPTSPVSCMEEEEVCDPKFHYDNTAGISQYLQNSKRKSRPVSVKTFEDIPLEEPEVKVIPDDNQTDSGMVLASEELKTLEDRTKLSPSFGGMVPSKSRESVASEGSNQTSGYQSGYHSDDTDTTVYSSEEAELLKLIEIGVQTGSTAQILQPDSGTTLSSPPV
T1 sequence (Q02763 whole entry): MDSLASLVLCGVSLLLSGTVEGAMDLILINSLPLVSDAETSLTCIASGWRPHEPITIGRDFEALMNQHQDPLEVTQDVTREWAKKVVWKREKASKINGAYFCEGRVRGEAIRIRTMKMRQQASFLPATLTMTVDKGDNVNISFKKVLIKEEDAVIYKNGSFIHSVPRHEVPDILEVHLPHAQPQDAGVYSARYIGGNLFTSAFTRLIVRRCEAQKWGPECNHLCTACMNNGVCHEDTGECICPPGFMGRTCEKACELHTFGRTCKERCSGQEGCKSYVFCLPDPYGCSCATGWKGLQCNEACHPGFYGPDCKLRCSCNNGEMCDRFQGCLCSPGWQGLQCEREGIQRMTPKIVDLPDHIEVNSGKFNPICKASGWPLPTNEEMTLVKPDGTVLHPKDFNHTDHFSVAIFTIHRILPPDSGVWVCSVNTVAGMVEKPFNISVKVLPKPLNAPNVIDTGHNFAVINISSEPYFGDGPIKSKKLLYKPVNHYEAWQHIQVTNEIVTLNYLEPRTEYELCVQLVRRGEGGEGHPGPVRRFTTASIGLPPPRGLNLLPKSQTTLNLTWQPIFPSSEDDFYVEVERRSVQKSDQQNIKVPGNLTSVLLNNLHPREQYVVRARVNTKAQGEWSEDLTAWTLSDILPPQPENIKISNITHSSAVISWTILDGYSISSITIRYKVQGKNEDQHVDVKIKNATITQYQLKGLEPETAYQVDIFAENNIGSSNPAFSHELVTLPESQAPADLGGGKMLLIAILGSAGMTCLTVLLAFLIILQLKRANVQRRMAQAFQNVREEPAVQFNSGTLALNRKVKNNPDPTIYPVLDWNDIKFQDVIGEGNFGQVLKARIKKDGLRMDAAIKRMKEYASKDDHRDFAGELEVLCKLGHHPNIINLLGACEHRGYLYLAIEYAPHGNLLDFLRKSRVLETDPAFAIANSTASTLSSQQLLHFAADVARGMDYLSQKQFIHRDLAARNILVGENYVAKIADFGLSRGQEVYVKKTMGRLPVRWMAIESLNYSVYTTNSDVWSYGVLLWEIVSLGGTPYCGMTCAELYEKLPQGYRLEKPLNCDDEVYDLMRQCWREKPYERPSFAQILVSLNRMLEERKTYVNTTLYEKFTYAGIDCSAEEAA
Ephrin type-B receptor 4, sequence (P54760 whole entry): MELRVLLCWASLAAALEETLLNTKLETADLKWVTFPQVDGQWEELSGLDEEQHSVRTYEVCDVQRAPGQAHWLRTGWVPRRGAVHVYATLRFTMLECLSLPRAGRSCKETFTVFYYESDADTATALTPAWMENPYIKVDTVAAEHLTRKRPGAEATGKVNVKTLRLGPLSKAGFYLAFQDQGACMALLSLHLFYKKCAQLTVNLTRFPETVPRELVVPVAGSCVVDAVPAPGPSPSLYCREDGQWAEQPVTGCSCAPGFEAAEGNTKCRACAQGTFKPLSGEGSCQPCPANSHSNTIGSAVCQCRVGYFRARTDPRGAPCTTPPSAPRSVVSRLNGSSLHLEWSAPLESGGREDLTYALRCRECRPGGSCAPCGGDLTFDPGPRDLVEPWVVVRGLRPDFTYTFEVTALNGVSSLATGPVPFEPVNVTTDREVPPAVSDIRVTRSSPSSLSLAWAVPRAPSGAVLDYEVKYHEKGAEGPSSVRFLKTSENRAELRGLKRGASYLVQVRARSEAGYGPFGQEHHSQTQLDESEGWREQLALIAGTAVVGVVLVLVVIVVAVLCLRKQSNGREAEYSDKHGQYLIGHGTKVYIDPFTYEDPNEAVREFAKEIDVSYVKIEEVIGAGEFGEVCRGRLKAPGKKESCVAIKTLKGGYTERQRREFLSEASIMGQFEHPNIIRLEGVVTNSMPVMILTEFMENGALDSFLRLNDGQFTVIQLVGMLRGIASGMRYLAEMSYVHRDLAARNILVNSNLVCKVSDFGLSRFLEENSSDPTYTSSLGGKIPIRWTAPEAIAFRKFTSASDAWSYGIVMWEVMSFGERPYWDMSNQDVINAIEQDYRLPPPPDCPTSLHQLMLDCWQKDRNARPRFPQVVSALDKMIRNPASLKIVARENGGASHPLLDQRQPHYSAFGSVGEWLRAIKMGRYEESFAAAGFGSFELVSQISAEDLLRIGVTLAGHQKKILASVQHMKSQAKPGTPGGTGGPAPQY
Angiopoietin-1 receptor (Mus musculus), sequence (Q02858 whole entry): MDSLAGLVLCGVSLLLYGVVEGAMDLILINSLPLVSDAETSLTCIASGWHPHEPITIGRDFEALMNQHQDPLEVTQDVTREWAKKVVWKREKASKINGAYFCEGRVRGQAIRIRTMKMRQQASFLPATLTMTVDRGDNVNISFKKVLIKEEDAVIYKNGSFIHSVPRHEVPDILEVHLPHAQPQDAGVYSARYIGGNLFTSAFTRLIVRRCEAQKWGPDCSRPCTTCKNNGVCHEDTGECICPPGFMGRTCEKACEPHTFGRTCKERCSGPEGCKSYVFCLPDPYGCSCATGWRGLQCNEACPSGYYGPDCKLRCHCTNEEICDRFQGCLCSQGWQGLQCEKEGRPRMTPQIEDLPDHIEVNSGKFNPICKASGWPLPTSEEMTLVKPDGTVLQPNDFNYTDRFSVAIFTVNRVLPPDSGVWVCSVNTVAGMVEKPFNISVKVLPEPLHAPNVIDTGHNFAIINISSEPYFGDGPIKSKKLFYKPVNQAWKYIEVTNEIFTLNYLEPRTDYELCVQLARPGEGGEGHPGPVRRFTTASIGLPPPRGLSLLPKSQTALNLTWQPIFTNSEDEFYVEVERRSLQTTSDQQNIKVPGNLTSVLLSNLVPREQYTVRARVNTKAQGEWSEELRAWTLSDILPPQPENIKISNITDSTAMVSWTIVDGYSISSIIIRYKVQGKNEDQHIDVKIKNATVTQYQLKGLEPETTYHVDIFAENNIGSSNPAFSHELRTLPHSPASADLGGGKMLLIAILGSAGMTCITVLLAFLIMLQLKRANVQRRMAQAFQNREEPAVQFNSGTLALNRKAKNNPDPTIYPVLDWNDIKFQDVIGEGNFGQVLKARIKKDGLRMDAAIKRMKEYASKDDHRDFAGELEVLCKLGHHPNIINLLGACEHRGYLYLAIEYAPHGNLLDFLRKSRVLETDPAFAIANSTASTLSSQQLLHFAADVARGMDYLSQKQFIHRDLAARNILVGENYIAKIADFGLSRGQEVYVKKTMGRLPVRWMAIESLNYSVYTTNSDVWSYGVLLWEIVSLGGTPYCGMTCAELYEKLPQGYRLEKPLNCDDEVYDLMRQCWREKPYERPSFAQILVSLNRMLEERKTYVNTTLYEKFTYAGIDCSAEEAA
Proto-oncogene tyrosine-protein kinase Src, sequence (P12931 2-536 limits assumed): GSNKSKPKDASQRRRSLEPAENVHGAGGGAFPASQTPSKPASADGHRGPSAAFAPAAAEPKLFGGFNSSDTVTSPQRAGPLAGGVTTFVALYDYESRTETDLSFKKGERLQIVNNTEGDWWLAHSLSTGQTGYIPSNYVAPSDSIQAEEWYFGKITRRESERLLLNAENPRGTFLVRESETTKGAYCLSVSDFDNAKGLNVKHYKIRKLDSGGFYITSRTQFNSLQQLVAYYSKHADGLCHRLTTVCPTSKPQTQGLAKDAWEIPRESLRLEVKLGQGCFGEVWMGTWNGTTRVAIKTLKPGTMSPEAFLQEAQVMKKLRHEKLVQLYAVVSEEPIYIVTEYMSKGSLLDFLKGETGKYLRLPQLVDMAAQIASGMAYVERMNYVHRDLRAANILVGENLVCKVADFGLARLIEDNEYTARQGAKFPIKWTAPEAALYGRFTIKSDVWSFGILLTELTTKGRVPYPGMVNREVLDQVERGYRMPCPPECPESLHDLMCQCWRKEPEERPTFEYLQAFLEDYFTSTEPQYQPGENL

COc1ccc(C(F)(F)F)cc1NC(=O)c1ccc(C)c(Oc2ncccc2-c2ccncn2)c1
IC50 [1]: 100 nM

COc1ccc(C2CCCCC2)cc1NC(=O)c1ccc(C)c(Oc2ncccc2-c2ncnc3cc(OC)c(OC)cc23)c1
IC50 (Angiopoietin-1 receptor [2]): > 25000 nM | IC50 [1]: > 25000 nM

CNc1nccc(-c2cccnc2Oc2cc(C(=O)Nc3cc(C(F)(F)F)ccc3N3CCCCC3)ccc2F)n1
clearance [3]: 25.6 mL/min/kg | IC50 [1]: 2000 nM

CNc1ncnc(-c2cccnc2Oc2cc(C(=O)Nc3cc(C(F)(F)F)ccc3N(C)CCCN(C)C)ccc2C)n1
IC50 (Angiopoietin-1 receptor [4]): 140 nM | IC50 (Angiopoietin-1 receptor [2]): 59 nM | clearance [3]: 15.3 mL/min/kg | IC50 [1]: 4000 nM

CNc1ncnc(-c2cccnc2Oc2ccc(F)c(C(=O)Nc3cc(C(C)C)ccc3N(C)CCCN(C)C)c2)n1
clearance [3]: 70 mL/min/kg | IC50 [1]: > 8000 nM

COc1ccc(C2CCCCC2)cc1NC(=O)c1ccc(C)c(Oc2ncccc2-c2ccnc3ccccc23)c1
IC50 (Angiopoietin-1 receptor [2]): > 25000 nM | IC50 [1]: > 25000 nM

CNc1nccc(-c2cccnc2Oc2cccc(C(=O)Nc3cc(C(F)(F)F)ccc3N3CCCCC3)c2)n1
IC50 (Angiopoietin-1 receptor [4]): 368 nM | IC50 (Angiopoietin-1 receptor [2]): 99 nM | clearance [3]: 54 mL/min/kg | IC50 [1]: > 8000 nM

Cc1ccc(C(=O)Nc2cc(C(F)(F)F)ccc2N2CCOCC2)cc1Oc1ncccc1-c1ccncn1
IC50 [1]: > 25000 nM

Cc1ccc(C(=O)Nc2cc(C(F)(F)F)ccc2N2CCCCC2)cc1Nc1ncccc1-c1ccncn1
Selectivity ratio [5]: > 100 | IC50 (Angiopoietin-1 receptor [2]): 181 nM | IC50 [1]: > 25000 nM

CNc1ncnc(-c2cccnc2Oc2cc(C(=O)Nc3cccc(C(F)(F)F)c3)ccc2C)n1
IC50 (Angiopoietin-1 receptor [4]): 38 nM | IC50 (Angiopoietin-1 receptor [2]): 10 nM | IC50 [1]: 97 nM

COc1ccc(C(F)(F)F)cc1NC(=O)c1ccc(C)c(Nc2ncccc2-c2ccncn2)c1
IC50 [1]: 58 nM

Cc1ccc(C(=O)Nc2ccc(C(F)(F)F)cc2)cc1Nc1ncccc1-c1ccncn1
solubility [6]: 1 µg/mL (≈ 2.23 µM) | IC50 (Angiopoietin-1 receptor [2]): 504 nM | IC50 [1]: 177 nM

CNc1cc(-c2cccnc2Oc2cc(C(=O)Nc3cc(C4CCCCC4)ccc3OC)ccc2C)ccn1
clearance [3]: 98.3 mL/min/kg | IC50 [1]: > 25000 nM

CNc1nccc(-c2cccnc2Oc2cc(C(=O)Nc3cc(C(F)(F)F)ccc3N3CCCCC3)ccc2C)n1
IC50 [1]: 461 nM

Cc1ccc(C(=O)Nc2cc(C(F)(F)F)ccc2N2CCCCC2)cc1Oc1ncccc1-c1ccncn1
IC50 [1]: 1300 nM

Cc1ccc(C(=O)Nc2cccc(C(F)(F)F)c2)cc1Oc1ncccc1-c1ccncn1
IC50 [1]: 59 nM

Cc1ccc(C(=O)Nc2cccc(C(F)(F)F)c2)cc1Nc1ncccc1-c1ccncn1
IC50 (Ephrin type-B receptor 4): < 25 nM | IC50 [7]: < 25 nM | IC50 [8]: < 25 nM | IC50 [9]: < 25 nM | IC50 [1]: 4 nM | IC50 [10]: < 25 nM

O=C(Nc1ccc(Oc2ccccc2)cc1)c1cccnc1NCc1ccncc1
IC50 (Angiopoietin-1 receptor [2]): ≥ 25000 nM

COc1cc(Nc2ncnc(-c3cccnc3Nc3cccc(C(=O)Nc4ccc(Oc5ccccc5)cc4)c3)n2)cc(OC)c1OC
IC50 (Angiopoietin-1 receptor [2]): 85 nM | IC50 [1]: 38 nM

CNc1nccc(-c2cccnc2Oc2cc(C(=O)Nc3cc(C(F)(F)F)ccc3N3CCCCC3)ccc2Cl)n1
clearance [3]: 21.6 mL/min/kg | IC50 [1]: 675 nM

Cc1ccc(C(=O)Nc2ccccc2)cc1Nc1ncccc1-c1ccncn1
IC50 [1]: 435 nM

CNc1nccc(-c2cccnc2Oc2ccc(F)c(C(=O)Nc3cc(C(F)(F)F)ccc3N(C)CCCN(C)C)c2)n1
bioavailability [11]: 32% | clearance [3]: 12 mL/min/kg | IC50 [1]: 46 nM

CNc1ncnc(-c2cccnc2Oc2ccc(F)c(C(=O)Nc3cc(C4CC4)ccc3N(C)CCCN(C)C)c2)n1
IC50 (Angiopoietin-1 receptor [4]): 39 nM | IC50 (Angiopoietin-1 receptor [2]): 13 nM | clearance [3]: 45.5 mL/min/kg | IC50 [1]: > 25000 nM

CNc1ncnc(-c2cccnc2Oc2cc(C(=O)Nc3cc(C4CCCCC4)ccc3OC)ccc2C)n1
MRT [12]: 0.47 h | IC50 (Angiopoietin-1 receptor [4]): 61 nM | IC50 (Angiopoietin-1 receptor [2]): 22 nM | clearance [3]: 12.8 mL/min/kg | IC50 [1]: > 25000 nM

CNc1nccc(-c2cccnc2Oc2ccc(F)c(C(=O)Nc3cc(C(F)(F)F)ccc3N3CCCCC3)c2)n1
bioavailability [11]: 0.3% | Selectivity ratio [5]: > 500 | IC50 (Angiopoietin-1 receptor [4]): 244 nM | IC50 (Angiopoietin-1 receptor [2]): 40 nM | clearance [3]: 5.67 mL/min/kg | IC50 [1]: > 25000 nM

CNc1ncnc(-c2cccnc2Oc2ccc(F)c(C(=O)Nc3cc(C(F)(F)F)ccc3N3CCCCC3)c2)n1
IC50 [1]: > 25000 nM

CNc1nccc(-c2cccnc2Oc2cc(C(=O)Nc3cc(C4CCCCC4)ccc3OC)ccc2C)n1
clearance [3]: 58.2 mL/min/kg | IC50 [1]: 70 nM

CNc1nccc(-c2cc(C)cnc2Oc2cccc(C(=O)Nc3cc(C(F)(F)F)ccc3N3CCCCC3)c2C)n1
IC50 (Angiopoietin-1 receptor [2]): 388 nM | IC50 [1]: 2600 nM

CNc1ncnc(-c2cccnc2Oc2ccc(F)c(C(=O)Nc3cc(C(F)(F)F)ccc3N(C)CCCN(C)C)c2)n1
IC50 [13]: 25000 nM | bioavailability [11]: 31% | IC50 [14]: 1940 nM | AUC(0-inf) [15]: 2640 ng·h/mL | concentration at 12 h [16]: 1.59 µM | pKa [17]: 9.5 | IC50 (Ephrin type-B receptor 4): 8300 nM | Cmax [18]: 520 ng/mL | clearance [19]: 21.7 mL/min/kg | IC50 [20]: 8300 nM | IC50 [21]: 1280 nM | Vd [22]: 2.56 L/kg | inhibition [23]: 94% | half-life [24]: 1.6 h | IC50 [25]: 1100 nM | IC50 [26]: 927 nM | IC50 [27]: 8300 nM | IC50 [28]: 40000 nM | IC50 [7]: 4900 nM | concentration at 8 h [29]: 3.03 µM | fraction unbound [30]: 0.07 | inhibition [31]: 25% | IC50 [32]: 100000 nM | IC50 [33]: 8300 nM | IC50 [34]: 25000 nM | concentration at 3 h [35]: 3.97 µM | fraction unbound [36]: 0.02 | solubility [37]: 44 µg/mL (≈ 73.5 µM) | IC50 [38]: 25000 nM | solubility [39]: 340 µg/mL (≈ 568 µM) | Tmax [40]: 2 h | solubility [6]: 1320 µg/mL (≈ 2210 µM) | IC50 [41]: 25000 nM | IC50 [42]: 100000 nM | IC50 [43]: 25000 nM | IC50 [8]: 5750 nM | IC50 (Angiopoietin-1 receptor [4]): 62 nM | IC50 (Aurora kinase A): 25000 nM | IC50 (Angiopoietin-1 receptor [2]): 30 nM | clearance [3]: 21.7 mL/min/kg | IC50 [1]: 7800 nM | IC50 [44]: 25000 nM | IC50 [10]: 3700 nM

Cc1ccc(C(=O)Nc2ccc(C(F)(F)F)cc2)cc1Oc1ncccc1-c1ccncn1
solubility [6]: 5 µg/mL (≈ 11.1 µM) | IC50 [1]: 705 nM

CNc1nccc(-c2cccnc2Oc2cc(C(=O)Nc3cc(C(F)(F)F)ccc3N3CCOCC3)ccc2C)n1
IC50 [1]: 310 nM
